Laboratory results as given in patent US20190169134A1, “NOVEL CLASS OF QUINOLONE HETEROCYCLIC AROMATIC MOLECULES FOR CANCER TREATMENT” (RenoTarget Therapeutics, Inc., priority 2016, published 2019).
Values joined by “and” are separate entries in the source; they are usually repeats but may differ in a detail not shown here. Equal entries are not always repeated.

What was measured:
[1] = target: T1, EGFR (Homo sapiens, UniProt P00533); assay: KinaseSeeker competition binding assay
T1 construct: made in house; host or cells: cell-free system (rabbit reticulocyte lysate)
T1 sequence (P00533 25-1210): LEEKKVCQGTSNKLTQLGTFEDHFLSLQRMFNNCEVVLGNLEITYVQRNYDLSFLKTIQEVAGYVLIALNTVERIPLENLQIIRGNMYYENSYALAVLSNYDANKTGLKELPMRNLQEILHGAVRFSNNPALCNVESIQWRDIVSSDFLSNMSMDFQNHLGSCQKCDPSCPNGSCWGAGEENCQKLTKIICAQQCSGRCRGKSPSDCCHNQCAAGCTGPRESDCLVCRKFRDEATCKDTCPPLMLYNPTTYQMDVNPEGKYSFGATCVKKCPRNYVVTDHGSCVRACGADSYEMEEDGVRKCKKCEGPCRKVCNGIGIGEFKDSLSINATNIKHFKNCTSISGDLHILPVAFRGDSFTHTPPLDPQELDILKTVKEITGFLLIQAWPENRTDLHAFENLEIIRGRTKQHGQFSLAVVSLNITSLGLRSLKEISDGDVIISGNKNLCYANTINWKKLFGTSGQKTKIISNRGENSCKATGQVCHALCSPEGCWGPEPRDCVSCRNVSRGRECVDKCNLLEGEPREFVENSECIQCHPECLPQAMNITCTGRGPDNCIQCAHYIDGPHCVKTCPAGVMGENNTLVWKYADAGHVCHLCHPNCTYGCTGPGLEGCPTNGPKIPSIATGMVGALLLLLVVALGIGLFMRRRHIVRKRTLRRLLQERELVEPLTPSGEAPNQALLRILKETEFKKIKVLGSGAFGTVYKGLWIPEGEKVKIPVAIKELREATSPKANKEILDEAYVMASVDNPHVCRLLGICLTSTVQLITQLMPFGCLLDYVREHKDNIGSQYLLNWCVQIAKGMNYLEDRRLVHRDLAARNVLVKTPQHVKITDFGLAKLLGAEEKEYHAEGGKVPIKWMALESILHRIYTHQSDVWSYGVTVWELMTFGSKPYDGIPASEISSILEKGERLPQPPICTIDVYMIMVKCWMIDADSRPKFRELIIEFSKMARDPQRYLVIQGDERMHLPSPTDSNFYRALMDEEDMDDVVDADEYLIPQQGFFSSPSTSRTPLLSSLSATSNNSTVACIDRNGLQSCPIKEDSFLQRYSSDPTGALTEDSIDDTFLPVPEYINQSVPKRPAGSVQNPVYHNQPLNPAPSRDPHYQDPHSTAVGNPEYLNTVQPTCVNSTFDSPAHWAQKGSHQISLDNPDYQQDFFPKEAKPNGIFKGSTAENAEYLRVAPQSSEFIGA
Experimental: (§1) Compound Reno647 was profiled against the following panel of kinases at 2 μM using the KinaseSeeker™ assay: ABL1, AKT1, AKT2, AKT3, ALK, AURKA, AXL, BRAF, BTK, CDK2, CDK5, CDK7, CDK8, CSF1R, DDR1, EGFR del L747-P753 InsS, EGFR (L861Q), EGFR (G719S), EGFR, EGFR (L858R), EPHA2, EPHB2, FGFR3, FLT1/VEGFR1, FLT2/FGFR1, FLT3, FLT4/VEGFR3, GSK-3a, HER2, IGF1R, INSR, KIT, LIMK1, MET, MLK2/MAP3K10, RPS6KA5/MSK1, MUSK, p38a/MAPK12, PDGFRA, PDGFRB, PDK1, RET, RIPK2, RPS6KA1/RSK1, SRC, TEC, TESK1, TRKB, VEGFR2, and YES 1.
(§2) KinaseSeeker is a homogeneous competition binding assay where the displacement of an active site dependent probe by an inhibitor is measured by a change in luminescence signal (see FIG. 7). Luminescence readout translates into a highly sensitive and robust assay with low background and minimal interference from test compounds.
(§3) (Jester, Cox et al. 2010; Jester, Gaj et al. 2012): 10 mM stock of compound Reno647 was diluted in DMSO to a concentration of 50 μM. Prior to initiating a profiling campaign, the compound was evaluated for false positive against split-luciferase. The compound was then screened in duplicate against each of the kinases. For kinase assays, each Cfluc-Kinase was translated along with Fos-Nfluc using a cell-free system (rabbit reticulocyte lysate) at 30° C. for 90 min. A 24 μL aliquot of this lysate containing either 1 μL of DMSO (for no-inhibitor control) or compound solution in DMSO (2 LM final concentration) was incubated for 30 minutes at room temperature followed by 1 hour in the presence of a kinase specific probe. A 80 μL of luciferin assay reagent was added to each solution and luminescence was immediately measured on a luminometer.
(§4) The % Inhibition and % Activity Remaining were calculated using the following equations:
(§5) % inhibition=(ALUcontrol−ALUsample)×100
(§6) % activity=100−% inhibition.
(§7) The same assay design was used as described in example section 3.1.
(§8) 10 mM stock solutions of compound Reno647 was serially diluted in DMSO to make assay stocks. Prior to initiating IC50 determination, the test compound was evaluated for false positive against split-luciferase.
(§9) Reno647 was screened against 6 kinases (EGFR, EGFR del L747 P753 InsS, EGFR G719S, EGFR L858R, EGFR L861Q, RIPK2) at a minimum of 8 different concentrations in duplicate. For kinase assays, a 24 μL aliquot of lysate containing Cfluc-kinase and Fos-Nfluc was incubated for 30 minutes at room temperature with either 1 μL of DMSO (for no-inhibitor control) or compound solution in DMSO, followed by 1 hour incubation in the presence of a kinase specific probe. A 80 μL of luciferin assay reagent was added to each solution and luminescence was immediately measured on a luminometer.
(§10) % inhibition=(ALUcontrol−ALUsample)/ALcontrol×100
(§11) The % Activity was plotted against compound concentration and the IC50 was determined for each compound using an 8-point curve.

[2] = target: T2, EGFR del L747-P753 Ins S (Homo sapiens, UniProt P00533, DEL747-752/P753S); assay: KinaseSeeker competition binding assay
T2 construct: made in house; host or cells: cell-free system (rabbit reticulocyte lysate)
T2 sequence (P00533 with tags, fused parts or gaps DEL747-752/P753S): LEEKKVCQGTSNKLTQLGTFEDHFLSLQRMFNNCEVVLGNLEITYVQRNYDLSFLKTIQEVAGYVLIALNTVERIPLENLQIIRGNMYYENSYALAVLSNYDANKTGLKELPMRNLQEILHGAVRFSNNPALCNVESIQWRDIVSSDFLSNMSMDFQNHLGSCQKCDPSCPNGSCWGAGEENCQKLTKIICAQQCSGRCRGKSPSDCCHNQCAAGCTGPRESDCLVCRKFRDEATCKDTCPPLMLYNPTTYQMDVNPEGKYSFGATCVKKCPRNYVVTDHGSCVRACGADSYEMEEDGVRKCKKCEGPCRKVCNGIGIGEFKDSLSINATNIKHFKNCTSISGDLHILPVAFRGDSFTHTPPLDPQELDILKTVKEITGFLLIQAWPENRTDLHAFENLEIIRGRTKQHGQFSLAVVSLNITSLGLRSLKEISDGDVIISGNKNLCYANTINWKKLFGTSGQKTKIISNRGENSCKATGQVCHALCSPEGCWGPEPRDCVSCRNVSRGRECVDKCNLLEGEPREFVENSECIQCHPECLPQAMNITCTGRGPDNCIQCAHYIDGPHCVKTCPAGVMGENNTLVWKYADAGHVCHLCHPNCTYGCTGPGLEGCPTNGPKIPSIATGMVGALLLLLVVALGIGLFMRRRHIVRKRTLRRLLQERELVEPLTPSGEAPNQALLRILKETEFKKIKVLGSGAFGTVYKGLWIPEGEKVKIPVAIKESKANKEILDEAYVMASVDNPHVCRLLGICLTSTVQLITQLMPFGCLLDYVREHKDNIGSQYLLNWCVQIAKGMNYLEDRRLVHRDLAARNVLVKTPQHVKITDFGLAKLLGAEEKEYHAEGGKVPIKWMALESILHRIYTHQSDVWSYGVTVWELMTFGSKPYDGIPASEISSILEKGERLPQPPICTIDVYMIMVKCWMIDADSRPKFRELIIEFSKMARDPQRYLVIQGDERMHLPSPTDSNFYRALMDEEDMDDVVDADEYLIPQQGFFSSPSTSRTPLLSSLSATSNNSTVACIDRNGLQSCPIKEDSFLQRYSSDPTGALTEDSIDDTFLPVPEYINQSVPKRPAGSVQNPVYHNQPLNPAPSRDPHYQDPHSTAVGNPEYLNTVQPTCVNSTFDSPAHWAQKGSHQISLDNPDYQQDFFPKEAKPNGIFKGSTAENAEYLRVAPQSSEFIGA
Experimental: as §1, §2, §3, §4, §5, §6, §7, §8, §9, §10, §11

[3] = target: T3, EGFR (G719S) (Homo sapiens, UniProt P00533, G719S); assay: KinaseSeeker competition binding assay
T3 construct: made in house; host or cells: cell-free system (rabbit reticulocyte lysate)
T3 sequence (P00533 25-1210 G719S): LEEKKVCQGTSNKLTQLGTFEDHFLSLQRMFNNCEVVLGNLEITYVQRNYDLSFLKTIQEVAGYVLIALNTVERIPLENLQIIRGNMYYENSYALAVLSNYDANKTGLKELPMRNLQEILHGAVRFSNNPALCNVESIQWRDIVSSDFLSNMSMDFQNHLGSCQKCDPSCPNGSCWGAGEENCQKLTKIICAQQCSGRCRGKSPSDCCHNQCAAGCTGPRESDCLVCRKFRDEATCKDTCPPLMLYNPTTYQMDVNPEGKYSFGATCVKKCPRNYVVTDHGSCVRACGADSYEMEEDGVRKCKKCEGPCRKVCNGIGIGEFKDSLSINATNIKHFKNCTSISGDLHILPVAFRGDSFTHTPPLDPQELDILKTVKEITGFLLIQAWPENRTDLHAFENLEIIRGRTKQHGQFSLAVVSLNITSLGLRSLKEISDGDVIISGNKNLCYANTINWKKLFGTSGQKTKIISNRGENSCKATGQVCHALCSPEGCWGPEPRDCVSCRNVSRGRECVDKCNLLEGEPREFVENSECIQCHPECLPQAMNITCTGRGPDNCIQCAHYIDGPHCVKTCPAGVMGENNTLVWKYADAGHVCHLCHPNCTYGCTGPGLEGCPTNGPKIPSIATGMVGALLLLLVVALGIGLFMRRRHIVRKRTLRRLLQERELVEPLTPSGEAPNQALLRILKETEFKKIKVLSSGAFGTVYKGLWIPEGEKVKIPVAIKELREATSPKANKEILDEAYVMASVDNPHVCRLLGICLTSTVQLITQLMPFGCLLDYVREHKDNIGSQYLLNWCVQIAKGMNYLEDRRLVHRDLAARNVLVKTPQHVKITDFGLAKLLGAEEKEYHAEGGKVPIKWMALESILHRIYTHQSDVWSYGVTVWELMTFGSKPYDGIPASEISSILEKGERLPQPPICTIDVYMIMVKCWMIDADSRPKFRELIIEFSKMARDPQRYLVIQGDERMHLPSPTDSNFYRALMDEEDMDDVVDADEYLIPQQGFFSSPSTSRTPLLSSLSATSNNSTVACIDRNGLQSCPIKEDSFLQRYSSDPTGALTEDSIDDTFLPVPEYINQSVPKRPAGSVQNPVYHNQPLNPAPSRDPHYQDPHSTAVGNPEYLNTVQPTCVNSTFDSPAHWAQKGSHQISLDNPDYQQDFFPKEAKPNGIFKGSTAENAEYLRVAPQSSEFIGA
Experimental: as §1, §2, §3, §4, §5, §6, §7, §8, §9, §10, §11

[4] = target: T4, EGFR(L861Q) (Homo sapiens, UniProt P00533, L861Q); assay: KinaseSeeker competition binding assay
T4 construct: made in house; host or cells: cell-free system (rabbit reticulocyte lysate)
T4 sequence (P00533 25-1210 L861Q): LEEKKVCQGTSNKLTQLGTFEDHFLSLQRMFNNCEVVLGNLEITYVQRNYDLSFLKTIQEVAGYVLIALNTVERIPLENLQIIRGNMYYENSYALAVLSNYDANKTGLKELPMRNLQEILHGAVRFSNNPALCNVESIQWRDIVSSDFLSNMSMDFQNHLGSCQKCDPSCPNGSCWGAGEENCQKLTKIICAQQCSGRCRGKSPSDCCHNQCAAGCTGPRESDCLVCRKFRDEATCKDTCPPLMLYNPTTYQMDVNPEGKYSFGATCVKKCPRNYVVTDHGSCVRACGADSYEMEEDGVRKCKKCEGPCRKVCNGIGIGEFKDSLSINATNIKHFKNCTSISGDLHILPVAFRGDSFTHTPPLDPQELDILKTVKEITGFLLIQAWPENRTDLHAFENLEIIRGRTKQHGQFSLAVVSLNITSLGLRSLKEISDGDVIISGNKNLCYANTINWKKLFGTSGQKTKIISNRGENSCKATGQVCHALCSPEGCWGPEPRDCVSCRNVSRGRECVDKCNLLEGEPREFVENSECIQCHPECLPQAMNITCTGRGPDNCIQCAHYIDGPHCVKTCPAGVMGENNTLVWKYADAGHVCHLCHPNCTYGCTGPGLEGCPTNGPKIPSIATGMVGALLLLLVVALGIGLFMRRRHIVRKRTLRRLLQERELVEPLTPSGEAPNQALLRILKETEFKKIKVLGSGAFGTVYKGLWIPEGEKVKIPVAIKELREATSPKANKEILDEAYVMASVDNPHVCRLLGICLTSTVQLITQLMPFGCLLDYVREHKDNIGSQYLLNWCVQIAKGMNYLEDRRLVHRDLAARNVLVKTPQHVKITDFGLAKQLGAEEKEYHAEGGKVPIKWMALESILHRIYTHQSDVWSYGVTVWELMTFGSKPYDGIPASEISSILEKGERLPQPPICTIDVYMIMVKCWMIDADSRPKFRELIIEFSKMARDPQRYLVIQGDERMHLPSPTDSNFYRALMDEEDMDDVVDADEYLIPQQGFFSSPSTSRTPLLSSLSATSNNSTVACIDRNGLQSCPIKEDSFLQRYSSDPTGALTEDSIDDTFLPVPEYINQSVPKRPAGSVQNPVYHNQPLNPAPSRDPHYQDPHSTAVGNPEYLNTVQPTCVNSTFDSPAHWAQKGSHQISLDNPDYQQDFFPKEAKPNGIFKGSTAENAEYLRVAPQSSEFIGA
Experimental: as §1, §2, §3, §4, §5, §6, §7, §8, §9, §10, §11

[5] = target: T5, EGFR (L858R) (Homo sapiens, UniProt P00533, L858R); assay: KinaseSeeker competition binding assay
T5 construct: made in house; host or cells: cell-free system (rabbit reticulocyte lysate)
Experimental: as §1, §2, §3, §4, §5, §6, §7, §8, §9, §10, §11

[6] = test system: tested cancer cell lines; assay: Cell growth inhibition by SRB method, tested cancer cell lines overall; assay type: cell-based, human; settings: data not provided
Text: Six human cancer cell lines have been used to evaluate effects of the compounds on proliferation of cancer cells. These cell lines include HCC827-P (or HCC827 parent cells), human non-small lung cancer cells, Parent NSCLC HCC827 cell line (which harbors EGFR gene amplification, Exon 19 (E19) deletion, and Exon 21 mutation (Wang, Ramakrishnan et al. 2010), and is an EGFRi sensitive cell line (Kim, Kim et al. 2010)); HCC827-TR16 (Tarceva-resistant HCC727 cell line), HCC827-OR16 (AZD9291-resistant HCC727 cell line), LNCaP (human prostate cancer cells—a hormonal-therapy sensitive cell line (Wang, Liu et al. 1997)); 22RV1 (human prostate cancer cells—a hormonal-therapy resistant cell line (Sramkoski, Pretlow et al. 1999)); and ACHN (human renal adenocarcinoma cells (Park, Jung et al. 2003)). LNCaP cells and 22RV1 cells were purchased from the American Type Culture Collection (Rockville, Md.) and others were gifts of friends.
All cell lines were maintained in RPMI-1640 (GIBCO, Gaithersburg, Md.) with 10% heat-inactivated bovine serum (FBS) (Wang, Ossowski et al. 2004).
Sulforhodamine B (SRB) was used to estimate cell growth as described previously (Skehan, Storeng et al. 1990). Briefly, cells grown exponentially were aliquoted into 96-well plates at a density of 2,500 to 5,000 cells/200 μl per well in RPMI 1640 medium containing 10% FBS. After twenty-four hours, the cells were exposed to indicated concentrations of tested compounds for 72 hrs or otherwise as indicated. The cells were then fixed with 10% trichloride acetic acid for 2 h at 4° C. The 10% trichloride acetic acid was removed, and the dishes were washed 5 times with tape water, and air-dried. The fixed and dried cells were then stained with 0.4% SRB in 1% acetic acid for 25 min, and the dishes were washed 5 times with 1% acetic acid and air-dried overnight. 200 μl of 10 mM of Tris buffer (pH 10.0) were added, and the dishes were rotated to completely dissolve the color. Absorbance at 570 nm, with a reference wavelength 690 nm, was measured on a 96-well microplate reader (SPECTRO Star^Nano, BMG Labtech). Mean, standard deviation (SD) and the percent of growth inhibition at each concentration point of the treatment were calculated. The percent of growth inhibition as defined as (1−T/C)×100 where T is the mean of the absorbance at 570 nm from the treatment, and C from control (drug vehicle only). IC50 was calculated using Sigma-plot software by regression of growth-concentration curve from each drug treatment.

remaining binding at 2 µM ([1]; 2 μM, wild-type EGFR): 66.7%
IC50 ([1]; 8-point curve, duplicate, read-out: IC50 wild-type of EGFR): 25 µM
remaining binding at 2 µM ([2]; 2 μM, EGFR del L747-P753 Ins S): 14.8%
IC50 ([2]; 8-point curve, duplicate, read-out: IC50 EGFR del L747-P753 InsS): 0.0777 µM and 0.077 µM
remaining binding at 2 µM ([3]; 2 μM, EGFR (G719S)): 30.2%
IC50 ([3]; 8-point curve, duplicate): 0.971 µM
remaining binding at 2 µM ([4]; 2 μM, EGFR(L861Q)): 20.7%
IC50 ([4]; 8-point curve, duplicate): 0.574 µM
remaining binding at 2 µM ([5]; 2 μM, EGFR (L858R)): 7.2%
IC50 ([5]; 8-point curve, duplicate): 0.159 µM
SMILES: C#Cc1cccc(Nc2ncnc3cc(OCCOC)c(NC(=O)c4ccc(F)c([N+](=O)[O-])c4)cc23)c1 [Reno647, 4-Fluoro-N-[4-(3-ethynyl-phenylamino)-7-(2-methoxy-ethoxy)-quinazolin-6-yl]-3-nitro-benzamide]
activities against all tested cancer cells lines compared with NK-2206 and MLN8237 [6]: better activities
